Measured values reported in patent US9617170B2, “Water treatment” (Kemira Oyj, priority 2012, dated 2017).
Values joined by “and” are separate entries in the source; they are usually repeats but may differ in a detail not shown here. Equal values may be shown once.

Columns and labels:
[1] = tested on: MS2; conditions: PAA 7-15 mg/l; cited from earlier work
[2] = tested on: MS2; test: Disinfection of MS2-spiked wastewater effluent with PFA, UV and PFA+UV (plaque count); set-up: species or system RNA coliphages (MS2)
Experimental: Freshly prepared DEX-135® was added to wastewater effluent (500 ml) that was spiked with RNA coliphages (MS2) to contain 38534 PFU/ml MS2 and mixed continuously with a magnetic stirrer.
UV disinfection using collimator device: The test was done with 50 ml of wastewater effluent The waters were taken in to the cylinders and that was spiked with RNA coliphages (MS2) to contain 38534 PFU/ml MS2 and mixed. 10 ml of this water was taken in to the Petri dishes (diameter 6 cm) and exposed to UV using collimated beam (intensity I0 on the surface of water […]) with continue mixing with magnet stirrer. […]
Determination of microorganisms: The microbiological analyses were started within a few minutes after disinfection segment of the experiment. MS2 coliphages were determined on phage TYG-agar by basing on old double-agar-layer-method (Adams, 1959), with Escherichia coli ATCC 15597 and 13706, respectively as host bacteria and overnight incubation at 37° C. After incubation, virus plaques were counted and results calculated as PFU/ml (PFU=Plaque Forming Unit) and reduction percentage were also determined. […]
The synergistic index was calculated by the method presented by F. C. […] Here, the synergistic index was calculated using the following formula: Synergistic index SI=Qa/QA+Qb/QB.
Synergistic index was calculated for 1 log reduction.

[3] = tested on: E. coli; test: Disinfection of spiked wastewater effluent with PFA, UV and PFA+UV: E. coli count; set-up: species or system Escherichia coli; conditions: for PFA in combination with UV (Qa): UV 15 mWs/cm^2; for PFA in combination with UV (Qa) / PFA alone (QA): interpolated
Experimental: (§1) Since the wastewater effluent might contain less than 100 cfu/ml (10^4 cfu/100 ml) of E. coli and Enterococci these microorganisms were spiked to wastewater so that the numbers of these microorganisms would be at the level of 10^4-10^5 cfu/ml allowing to study better reduction. E. coli ATTC 15597 and Enterococcus faecalis ATCC 29212 were produced in tryptone yeast extract broth as overnight shaker cultures at 37° C. and kept at 4° C. during the experiment. The numbers of E. coli and Enterococci (containing thus both the natural and spiked ones) were enumerated from effluent and effluent after disinfections by using Chromocult agar (Merck) and confirmed by indole production for E. coli and Slanetz-Bartley agar (Labema) for Enterococci incubated at 37° C. for 1 and 2 days, respectively.
(§2) The enumerations of E. coli and Enterococci were done as for fresh wastewater keeping the mixture at 4° C. for less than 5 hours before starting the analysis.
(§3) Only UV-irradiation: The spiked wastewater effluent was mixed and treated in a collimator device (UV intensity of 0.22 mW/cm^2 on surface of the solution) to treat UV-irradiations using UV 15 mWs/cm^2 alone, UV 25 mWs/cm^2 alone and UV 50 mWs/cm^2 alone. The enumerations of E. coli and Enterococci were determined as previously.
(§4) E. coli and Enterococci were analyzed by the spread-plate-technique. E. coli were cultivated on Chromocult agar (Merck, KGaA, Germany) and incubated at 37° C. for 21+3 h (preferring 2 days) and Enterococci on Slanez & Bartley agar (Lab M, IDG plc, Bury, Lancashire, UK) and incubated at 37° C. for 48+3 h. E. coli were confirmed by oxidase. Bacterial numbers were calculated as CFU/ml (CFU=Colony Forming Unit) and reductions were also determined. These bacterial determination methods are describes in ISO-9308-1 (E. coli) and SFS-EN ISO 7899-2 (Enterococci).
(§5) The graphs of Log reduction vs. dose were made and the values below were interpolated from the linear function of the data points.

[4] = tested on: Enterococci; test: Disinfection of spiked wastewater effluent with PFA, UV and PFA+UV: Enterococci count; set-up: species or system Enterococcus faecalis; conditions: for PFA in combination with UV (Qa): UV 15 mWs/cm^2; for PFA in combination with UV (Qa) / PFA alone (QA): interpolated
Experimental: as §1, §2, §3, §4, §5

[5] = Decomposition of 8 spiked micropollutants in secondary waste water by PFA and UV (batch reactor); conditions: total reaction time 15 min
Experimental: The total reaction time was always kept in 15 min and the treatment temperature was between 10-15° C. The concentrations of each micropollutant were analyzed before and after treatment, and the difference was used to calculate the conversion of each compound. Further, a mean value of the conversions (%) of those 8 compounds was calculated to describe the overall efficiency of the treatment.

[6] = PFA 0.25 mg/l alone, 10 minutes contact

Q: For `CC(=O)OO` [PAA, peracetic acid], which “log reduction of MS2” value [1] is on record?
A: The value was 1-1.5.

Q: Which “PFA dose for 1 log reduction of MS2” value ([2]; PFA alone, effluent wastewater, 90% (1 log) removal) does the source give for `O=COO` [PFA, performic acid] here?
A: Its value is 3.5 mg/l.

Q: And the “synergy index (SI)” value ([2]; UV + PFA, 1 log reduction of MS2)?
A: The value was 1.

Q: And the SI ([3]; Log reduction 1.5, PFA 0.06 mg/l + UV 15 mWs/cm^2)?
A: The SI was 0.88.

Q: What about the “PFA in combination with UV (Qa)” value ([3]; Log reduction 1.5) of the same compound?
A: Its value is 0.06 mg/L.

Q: What about the “PFA alone (QA)” value ([3]; Log reduction 1.5) of the same compound?
A: The value was 0.33 mg/L.

Q: What about the SI ([3]; Log reduction 2, PFA 0.22 mg/l + UV 15 mWs/cm^2) of the same compound?
A: Its SI is 1 and 1.02.

Q: And the “PFA in combination with UV (Qa)” value ([3]; Log reduction 2)?
A: Its value is 0.22 mg/L.

Q: What about the “PFA alone (QA)” value ([3]; Log reduction 2) of the same compound?
A: The value was 0.44 mg/L.

Q: What about the Log reduction ([3]; PFA 0.25 mg/l + UV 25 mWs/cm^2) of the same compound?
A: The Log reduction was 3.52.

Q: And the Log reduction [3, 6]?
A: Its Log reduction is 1.72.

Q: What about the “PFA in combination with UV (Qa)” value ([4]; Log reduction 2.5) of the same compound?
A: Its value is 0.03 mg/L.

Q: What about the “PFA alone (QA)” value ([4]; Log reduction 2.5) of the same compound?
A: Its value is 0.47 mg/L.

Q: And the “PFA in combination with UV (Qa)” value ([4]; Log reduction 3)?
A: The value was 0.19 mg/L.

Q: What about the “PFA alone (QA)” value ([4]; Log reduction 3) of the same compound?
A: Its value is 0.56 mg/L.

Q: What about the “PFA in combination with UV (Qa)” value ([4]; Log reduction 3.5) of the same compound?
A: Its value is 0.35 mg/L.

Q: What about the “PFA alone (QA)” value ([4]; Log reduction 3.5) of the same compound?
A: Its value is 0.66 mg/L.

Q: What about the “PFA in combination with UV (Qa)” value ([4]; Log reduction 4) of the same compound?
A: The value was 0.52 mg/L.

Q: And the “PFA alone (QA)” value ([4]; Log reduction 4)?
A: Its value is 0.75 mg/L.

Q: And the Log reduction ([4]; PFA 0.25 mg/l + UV 15 mWs/cm^2)?
A: The Log reduction was 4.53.

Q: What about the Log reduction [4, 6] of the same compound?
A: Its Log reduction is 3.08.

Q: And the “average conversion (%) of 8 compounds” value ([5]; PFA 5 mg/l, UV 0 min)?
A: Its value is 1.66%.

Q: What about the “average conversion (%) of 8 compounds” value ([5]; PFA 5 mg/l, UV 1 min) of the same compound?
A: The value was 15.27%.

Q: What about the “average conversion (%) of 8 compounds” value ([5]; PFA 5 mg/l, UV 5 min) of the same compound?
A: Its value is 28.53%.

Q: What about the “average conversion (%) of 8 compounds” value ([5]; PFA 5 mg/l, UV 15 min) of the same compound?
A: Its value is 47.86%.

Q: What about the “average conversion (%) of 8 compounds” value ([5]; PFA 12.5 mg/l, UV 0 min) of the same compound?
A: The value was 5.15%.

Q: And the “average conversion (%) of 8 compounds” value ([5]; PFA 12.5 mg/l, UV 1 min)?
A: Its value is 19.25%.

Q: What about the “average conversion (%) of 8 compounds” value ([5]; PFA 12.5 mg/l, UV 5 min) of the same compound?
A: The value was 36.25%.

Q: What about the “average conversion (%) of 8 compounds” value ([5]; PFA 12.5 mg/l, UV 15 min) of the same compound?
A: Its value is 54.18%.

Q: What about the “average conversion (%) of 8 compounds” value ([5]; PFA 25 mg/l, UV 0 min) of the same compound?
A: The value was 8.98%.

Q: What about the “average conversion (%) of 8 compounds” value ([5]; PFA 25 mg/l, UV 1 min) of the same compound?
A: Its value is 16.64%.

Q: And the “average conversion (%) of 8 compounds” value ([5]; PFA 25 mg/l, UV 5 min)?
A: The value was 41.61%.

Q: What about the “average conversion (%) of 8 compounds” value ([5]; PFA 25 mg/l, UV 15 min (88 mJ/cm^2)) of the same compound?
A: Its value is 66.78%.
